Test results as given in article PMC8188729 (Nature, 2020).
Several values for one entry are separate records, joined by “and”; a condition that tells them apart may be missing. Identical values can stand only once. Like-named read-outs stand apart in the source and are kept apart here.

What was measured:
Cytotoxicity assay [1] = format: cell-based; settings: human, Gal-PC-3 cells
Cytotoxicity assay [2] = format: cell-based; settings: human, Gal-HepG2 cells
HIV-2 isolates = test: 7-day RT endpoint antiviral assay in human PBMCs, HIV-2 isolates; settings: Human immunodeficiency virus 2, PBMC, read-out: mean EC50
CA pentamer = CA pentamer (Human immunodeficiency virus type 1 group M subtype B, UniProt P12493, A154C/M317A/N153C/W316A); test: biochemical; format: binding
Cytotoxicity assay [3] = format: cell-based; settings: human, MT-4 cells
HIV-1BaL = test: p24 endpoint antiviral assay in macrophage cultures; format: cell-based; settings: Human immunodeficiency virus 1, Macrophage, read-out: mean EC50
Cytotoxicity assay [4] = format: cell-based; settings: human, primary CD4+ T-lymphocytes
HIV-1 DNA = test: Quantitation of HIV-1 DNA forms in infected MT-2 cells by PCR; settings: GS-6207 at 1.25 nM
CA hexamer = CA hexamer (Human immunodeficiency virus type 1 group M subtype B, UniProt P12493, A146C/E177C/M317A/W316A); test: Surface plasmon resonance binding assay; set-up: species or system HIV-1
Cytotoxicity assay [5] = format: cell-based; settings: human, MRC-5 cells
HIV-1IIIb = test: In vitro two-drug combination study in HIV-1IIIB-infected MT-2 cells
HIV-1 CA protein = format: biochemical; settings: 20 μM CA, 2 M NaCl
[6] = Study GS-US-200-4072: pharmacokinetics in participants living with HIV; format: in vivo, human; settings: for CD9 / paEC95 (mean), fold EC95 coverage on day 9: PLWH; for concentration at 9 day: both, human, plasma, sc
HIV-1 = format: in vivo; settings: for Maximum HIV-1 RNA change through day 9: individual participants
[7] = format: in vivo, human; settings: for AUCexp: healthy volunteers, mean (%CV); for time plasma concentrations exceeded paEC95: single SC, healthy participants
[8] = Study GS-US-200-4072: safety in participants living with HIV; format: in vivo, human; settings: for Any AE / Arthralgia / Constipation / Haemorrhoids / Headache / Injection site erythema / Injection site induration / Injection site nodule / Injection site pain / Nasopharyngitis / Nausea / Oropharyngeal pain / Rash / Serious AE: Atrial fibrillation / Syphilis / Upper respiratory tract infection / Vomiting: PLWH
[9] = both, human, plasma, sc, 100 mg
[10] = both, human, plasma, sc, 300 mg
[11] = both, human, plasma, sc, 450 mg
[12] = GS-6207 20 mg or Placebo (n = 8)
[13] = GS-6207 50 mg or Placebo (n = 8)

CC(C)(C#Cc1ccc(-c2ccc(Cl)c3c(NS(C)(=O)=O)nn(CC(F)(F)F)c23)c([C@H](Cc2cc(F)cc(F)c2)NC(=O)Cn2nc(C(F)(F)F)c3c2C(F)(F)[C@@H]2C[C@H]32)n1)S(C)(=O)=O [GS-6207]
CC50 (Cytotoxicity assay [1]): > 44400 nM | CC50 (Cytotoxicity assay [2]): > 44400 nM | EC50 (HIV-2 isolates): 0.885 nM | Kd (CA pentamer): 0.22 ± 0.16 nM | koff (CA pentamer; CA pentamer): 2.7 ± 0.4 x 10^−5 s^−1 | kon (CA pentamer; CA pentamer): 2 ± 1 x 10^5 M^−1s^−1 | CC50 (Cytotoxicity assay [3]): 24700 ± 18300 nM | EC50 (HIV-1BaL): 0.056 nM | CC50 (Cytotoxicity assay [4]): > 50000 nM | HIV cDNA synthesis (late RT products) (HIV-1 DNA): did not alter | formation of 2-LTR circles (HIV-1 DNA): significantly reduced | formation of integrated proviruses (HIV-1 DNA): significantly reduced | Kd (CA hexamer): 0.24 ± 0.09 nM | koff (CA hexamer; CA hexamer): 1.4 ± 0.4 x 10^−5 s^−1 | kon (CA hexamer; CA hexamer): 6.5 ± 0.3 x 10^4 M^−1s^−1 | CC50 (Cytotoxicity assay [5]): > 44400 nM | Synergy volume (HIV-1IIIb): 18 ± 8 μM^2.% | rate and extent of in vitro capsid assembly (HIV-1 CA protein): dose-dependent increase in the rate and extent of in vitro capsid assembly | CD9 / paEC95 (mean), fold EC95 coverage on day 9 ([6]; 20 mg SC): 0.67 | CD9 / paEC95 (mean), fold EC95 coverage on day 9 ([6]; 50 mg SC): 1.14 | CD9 / paEC95 (mean), fold EC95 coverage on day 9 ([6]; 150 mg SC): 3.33 | CD9 / paEC95 (mean), fold EC95 coverage on day 9 ([6]; 450 mg SC): 9.87 | concentration at 9 day ([6]; 20 mg): 2.58 ng/mL | concentration at 9 day ([6]; 50 mg): 4.4 ng/mL | concentration at 9 day ([6]; 150 mg): 12.9 ng/mL | concentration at 9 day ([6]; 450 mg): 38.2 ng/mL | Maximum HIV-1 RNA change through day 9 (HIV-1; 20 mg): −0.83 log10 copies ml^−1 and −1.58 log10 copies ml^−1 and −1.74 log10 copies ml^−1 and −1.43 log10 copies ml^−1 and −1.33 log10 copies ml^−1 and −1.21 log10 copies ml^−1 | Maximum HIV-1 RNA change through day 9 (HIV-1; 50 mg): −1.55 log10 copies ml^−1 and −1.61 log10 copies ml^−1 and −2.32 log10 copies ml^−1 and −1.16 log10 copies ml^−1 and −1.73 log10 copies ml^−1 and −2.39 log10 copies ml^−1 | Maximum HIV-1 RNA change through day 9 (HIV-1; 150 mg): −2.06 log10 copies ml^−1 and −1.68 log10 copies ml^−1 and −1.86 log10 copies ml^−1 and −1.49 log10 copies ml^−1 and −1.87 log10 copies ml^−1 and −1.62 log10 copies ml^−1 | Maximum HIV-1 RNA change through day 9 (HIV-1; 450 mg): −2.32 log10 copies ml^−1 and −2.86 log10 copies ml^−1 and −2.11 log10 copies ml^−1 and −1.83 log10 copies ml^−1 and −1.58 log10 copies ml^−1 and −2.52 log10 copies ml^−1 | mean maximum reduction in plasma HIV-1 RNA through 9 days (HIV-1; single 20 mg SC): 1.35 log10 | mean maximum reduction in plasma HIV-1 RNA through 9 days (HIV-1; single 50 mg SC): 1.79 log10 | mean maximum reduction in plasma HIV-1 RNA through 9 days (HIV-1; single 150 mg SC): 1.76 log10 | mean maximum reduction in plasma HIV-1 RNA through 9 days (HIV-1; single 450 mg SC): 2.20 log10 and 2.2 log10 | AUCexp ([7]; 30 mg SC): 17.6 (69.4) % | AUCexp ([7]; 100 mg SC): 6.78 (65.0) % | AUCexp ([7]; 300 mg SC): 5.39 (126) % | AUCexp ([7]; 450 mg SC): 3.29 (69.9) % | AUC(0-inf) ([7]; both, human, plasma, sc, 30 mg): 8700 ng·h/mL | AUC(0-t) ([7]; both, human, plasma, sc, 30 mg): 5500 ng·h/mL | Cmax ([7]; both, human, plasma, sc, 30 mg): 3.2 ng/mL | half-life ([7]; both, human, plasma, sc, 30 mg): 37 days | AUC(0-inf) [7, 9]: 27300 ng·h/mL | AUC(0-t) [7, 9]: 23600 ng·h/mL | Cmax [7, 9]: 14.7 ng/mL | half-life [7, 9]: 31.9 days | AUC(0-inf) [7, 10]: 86100 ng·h/mL | AUC(0-t) [7, 10]: 73100 ng·h/mL | Cmax [7, 10]: 47.9 ng/mL | half-life [7, 10]: 45.4 days | AUC(0-inf) [7, 11]: 108000 ng·h/mL | AUC(0-t) [7, 11]: 97600 ng·h/mL | Cmax [7, 11]: 58.4 ng/mL | Tmax [7, 11]: 14 days | half-life [7, 11]: 39.7 days | time plasma concentrations exceeded paEC95 ([7]; doses ≥ 100 mg): ≥ 12 weeks | time plasma concentrations exceeded paEC95 ([7]; doses ≥ 300 mg): > 24 weeks | duration of sustained plasma exposure at antivirally active concentrations ([7]; single subcutaneous dose 450 mg): > 6 months | Any AE [8, 12]: 5 (63) n (%) | Arthralgia [8, 12]: 0 n (%) | Constipation [8, 12]: 0 n (%) | Haemorrhoids [8, 12]: 0 n (%) | Headache [8, 12]: 1 (13) n (%) | Injection site erythema [8, 12]: 1 (13) n (%) | Injection site induration [8, 12]: 0 n (%) | Injection site nodule [8, 12]: 0 n (%) | Injection site pain [8, 12]: 0 n (%) | Nasopharyngitis [8, 12]: 0 n (%) | Nausea [8, 12]: 2 (25) n (%) | Oropharyngeal pain [8, 12]: 1 (13) n (%) | Rash [8, 12]: 1 (13) n (%) | Serious AE: Atrial fibrillation [8, 12]: 0 n (%) | Syphilis [8, 12]: 0 n (%) | Upper respiratory tract infection [8, 12]: 0 n (%) | Vomiting [8, 12]: 2 (25) n (%) | Any AE [8, 13]: 6 (75) n (%) | Arthralgia [8, 13]: 0 n (%) | Constipation [8, 13]: 1 (13) n (%) | Haemorrhoids [8, 13]: 1 (13) n (%) | Headache [8, 13]: 0 n (%) | Injection site erythema [8, 13]: 1 (13) n (%) | Injection site induration [8, 13]: 1 (13) n (%) | Injection site nodule [8, 13]: 1 (13) n (%) | Injection site pain [8, 13]: 4 (50) n (%) | Nasopharyngitis [8, 13]: 0 n (%) | Nausea [8, 13]: 1 (13) n (%) | Oropharyngeal pain [8, 13]: 1 (13) n (%) | Rash [8, 13]: 1 (13) n (%) | Serious AE: Atrial fibrillation [8, 13]: 0 n (%) | Syphilis [8, 13]: 1 (13) n (%) | Upper respiratory tract infection [8, 13]: 0 n (%) | Vomiting [8, 13]: 1 (13) n (%) | safety and tolerability ([8]; single SC 20 to 450 mg, participants with untreated HIV-1 infection): generally safe and well tolerated
